Results published in the Deep4Chem optical property database.
Several values for one entry are separate records, joined by “and”; a condition that tells them apart may be missing. Equal entries are not always repeated.

Experiment: solvent given as SMILES

`CCOC(=O)CCCCCn1c2ccccc2c(=O)c2cc(I)ccc21` gave an absorption maximum (in CO) of 414 nm.
Compound `CC1=[N+]2C(=C(c3ccc(C(=C(c4ccccc4)c4ccccc4)c4ccccc4)cc3)c3ccc(C)n3[B-]2(F)F)C=C1` has an absorption maximum (in C1CCOC1) of 511 nm.
`c1ccc(-c2ccc(-c3nc(-n4c5ccccc5c5ccc6c7ccccc7n(-c7ccccc7)c6c54)nc(-n4c5ccccc5c5ccc6c7ccccc7n(-c7ccccc7)c6c54)n3)cc2)cc1` gave an absorption maximum (in Cc1ccccc1) of 403 nm.
With `F[B-]1(F)n2c(nc(-c3ccccc3)c2-c2ccccc2)-c2cccc[n+]21` the absorption maximum (in C1CCCCC1) was 429 nm, the absorption maximum (in C1CCOC1) was 404 nm and the absorption maximum (in C1COCCO1) was 387 nm. The absorption maximum (in CC#N) was 393 nm and 363 nm, the absorption maximum (in CCCCCC) was 428 nm and 427 nm and the absorption maximum (in CO) was 391 nm. The absorption maximum (in ClC(Cl)Cl) was 414 nm and 388 nm and the absorption maximum (in ClCCl) was 408 nm.
For `CCCCc1ccc2ccc3cccc4ccc1c2c34`, the absorption maximum (in CCCCCC) was 338 nm, the absorption maximum (in CO) was 338 nm and the absorption maximum (in ClCCl) was 341 nm.
Compound `CCCCN(CCCC)c1ccc(C#Cc2cc(C#Cc3ccc(C#N)cc3)c(C#Cc3ccc(N(CCCC)CCCC)cc3)cc2C#Cc2ccc(C#N)cc2)cc1` has an absorption maximum (in ClCCl) of 454 nm.
`CCC1(CC)c2cc(/C=C/c3ccc(N(c4ccccc4)c4ccccc4)cc3)ccc2-c2ccc(/C=C/c3ccc(N(c4ccccc4)c4ccccc4)cc3)cc21` gave an absorption maximum (in Cc1ccccc1) of 412 nm.
Compound `CN(C)c1ccc(C2=Nc3scc(-c4ccc(C#N)cc4)[n+]3[B-](F)(F)O2)cc1` has an absorption maximum (in C1CCOC1) of 411 nm, an absorption maximum (in CC#N) of 411 nm and an absorption maximum (in Cc1ccccc1) of 414 nm. It also gave an absorption maximum (in ClCCl) of 415 nm.
With `O=C(O)CCCOc1cc2ccc3cccc4ccc(c1)c2c34` the absorption maximum (in CO) was 382 nm.
With `CCOC(=O)CCCn1c(C(=O)OC)c(C)c2c(=O)n3c(cc21)C(CC)=C(C)C3=O` the absorption maximum (in C1CCCCC1) was 396 nm, the absorption maximum (in CO) was 397 nm and the absorption maximum (in CS(C)=O) was 397 nm. The absorption maximum (in ClC(Cl)Cl) was 398 nm and the absorption maximum (in c1ccccc1) was 397 nm.
`FC(F)(F)c1ccc(/C=C/c2ccc(-c3nnc(-c4ccc(-c5cc6ccccc6s5)cc4)o3)cc2)cc1` gave an absorption maximum (in CC#N) of 333 nm, an absorption maximum (in CC(C)=O) of 342 nm and an absorption maximum (in CCCCCCCC) of 337 nm. The absorption maximum (in CCCCCCCCCCO) was 340 nm, the absorption maximum (in CCCCCCCCO) was 342 nm and the absorption maximum (in CCCCCO) was 341 nm. It also gave an absorption maximum (in CCCO) of 340 nm, an absorption maximum (in CN(C)C=O) of 345 nm and an absorption maximum (in CO) of 337 nm. The absorption maximum (in CS(C)=O) was 342 nm.
Compound `c1ccc(-c2nc(-c3ccccc3)nc(-c3ccc(-n4c5ccccc5c5cc6c(cc54)C(c4ccccc4)(c4ccccc4)c4ccccc4-6)cc3)n2)cc1` has an absorption maximum (in Cc1ccccc1) of 366 nm.
With `COc1ccc(N(c2ccc(OC)cc2)c2ccc(-c3ccc(C=C(C#N)C#N)o3)cc2)cc1` the absorption maximum (in ClC(Cl)Cl) was 524 nm.
With `c1cc2cc(c1)c1cccc(c1)c1ccc3ccc4ccc(cc4c3c1)c1cccc(c1)c1cccc2c1` the absorption maximum (in Cc1ccccc1) was 343 nm.
With `C1=CC2=Nc3cccc[n+]3CN2C=C1` the absorption maximum (in CO) was 412 nm.
Work on `CCCCCCCCCCCCOc1ccc(C#CC(C#Cc2ccc(OCCCCCCCCCCCC)cc2)=Cc2cc(C=C(C#Cc3ccc(OCCCCCCCCCCCC)cc3)C#Cc3ccc(OCCCCCCCCCCCC)cc3)cc(C=C(C#Cc3ccc(OCCCCCCCCCCCC)cc3)C#Cc3ccc(OCCCCCCCCCCCC)cc3)c2)cc1` yielded an absorption maximum (in CCOC(C)=O) of 347 nm.
With `CCCCCCN(CCCCCC)c1ccc(C#Cc2ccc(N(CCCCCC)CCCCCC)cc2)cc1` the absorption maximum (in CO) was 380 nm and the absorption maximum (in ClCCl) was 387 nm.
Compound `CCOC(=O)CCCCCn1c2ccccc2c(=O)c2cc3c(cc21)c(=O)c1ccccc1n3CC` has an absorption maximum (in CO) of 528 nm.
Compound `COc1cccc2oc(-c3cc4c(OC)cccc4oc3=O)cc12` has an absorption maximum (in CC#N) of 383 nm, an absorption maximum (in CCOC(C)=O) of 385 nm and an absorption maximum (in CS(C)=O) of 389 nm. It also gave an absorption maximum (in Cc1ccccc1) of 389 nm and an absorption maximum (in O) of 384 nm.
`O=P1(c2ccccc2)C(c2cccs2)=Cc2ccccc21` (configuration not stated) showed an absorption maximum (in C1CCOC1) of 368 nm.
In the case of `Cc1ccc(C#Cc2ccc3ccc4cccc5ccc2c3c45)cc1`, the absorption maximum (in CCCCCC) is reported as 362 nm, the absorption maximum (in CCO) is reported as 362 nm and the absorption maximum (in CCOC(C)=O) is reported as 362 nm. For the same compound, the absorption maximum (in ClCCl) was 365 nm.
In the case of `CCCCCCc1cc(B(c2c(C)cc(C)cc2C)c2c(C)cc(C)cc2C)c(-c2sc(CCCCCC)cc2P(=O)(c2ccccc2)c2ccccc2)s1`, the absorption maximum (in CO) is reported as 418 nm.
In the case of `COc1ccc2c(C=C(C#N)C#N)cc3ccc4cc(C=C(C#N)C#N)c5ccc(OC)cc5c4c3c2c1`, the absorption maximum (in ClC(Cl)Cl) is reported as 456 nm.
Compound `CC(C)c1cc(C(C)C)c(B2c3ccccc3Oc3cc(-n4c5ccccc5c5ccc6c(c7ccccc7n6-c6ccccc6)c54)ccc32)c(C(C)C)c1` has an absorption maximum (in Cc1ccccc1) of 438 nm.
With `CCN(CC)c1ccc(/C=C/c2ccc(-c3ccc(/C=C/c4ccc(N(CC)CC)cc4)s3)s2)cc1` the absorption maximum (in Cc1ccccc1) was 467.9 nm.
For `c1ccc2c(c1)Sc1ccccc1N2c1ccc2c(c1)C1(c3ccccc3-c3ccccc31)c1cc(N3c4ccccc4Sc4ccccc43)ccc1-2`, the absorption maximum (in Cc1ccccc1) was 309 nm.
For `CC1(C)CC(=O)C2=C(C1)Oc1ccc3cc(O)ccc3c1C2c1ccccn1` (configuration not stated), the absorption maximum (in C1CCOC1) was 349 nm, the absorption maximum (in C1COCCO1) was 347 nm and the absorption maximum (in CC#N) was 349 nm. The absorption maximum (in CCCCCCC) was 347 nm, the absorption maximum (in CCO) was 349 nm and the absorption maximum (in CO) was 349 nm. The absorption maximum (in O) was 347 nm.
In the case of `CCCCN1c2ccccc2Sc2cc(/C=C\c3cc(=O)oc4cc(C)ccc34)ccc21`, the absorption maximum (in ClC(Cl)Cl) is reported as 424 nm.
`CCCCCCCCCCCCC(CCCCCCCCCC)Cn1c2cc(/C=C/c3nc4ccccc4s3)c3cccc4c5cccc6c(/C=C/c7nc8ccccc8s7)cc1c(c65)c2c34` (configuration not stated) gave an absorption maximum (in C1CCCCC1) of 517 nm, an absorption maximum (in CC#N) of 516 nm and an absorption maximum (in Cc1ccccc1) of 524 nm. It also gave an absorption maximum (in ClCCl) of 521 nm.
For `N#Cc1cccc(C#N)c1-c1ccc(N2c3ccccc3C3(c4ccccc42)c2ccccc2N(c2ccc(-c4c(C#N)cccc4C#N)cc2)c2ccccc23)cc1`, the absorption maximum (in Cc1ccccc1) was 371.03 nm.
In the case of `O=C1/C(=C\c2ccc(N(c3ccccc3)c3ccccc3)cc2)S(=O)(=O)c2ccccc21`, the absorption maximum (in C1CCOC1) is reported as 473 nm, the absorption maximum (in C1COCCO1) is reported as 475 nm and the absorption maximum (in CC#N) is reported as 475 nm. It also gave an absorption maximum (in CC(C)=O) of 472 nm, an absorption maximum (in CCOC(C)=O) of 471 nm and an absorption maximum (in CN(C)C=O) of 478 nm. It also gave an absorption maximum (in CO) of 477 nm, an absorption maximum (in CS(C)=O) of 482 nm and an absorption maximum (in Cc1ccccc1) of 485 nm. It also gave an absorption maximum (in ClC(Cl)Cl) of 491 nm and an absorption maximum (in ClCCl) of 485 nm.
With `COc1ccc(-c2ccc(OC)cc2)cc1` the absorption maximum (in C1CCCCC1) was 271.81 nm.
Work on `CN(C)c1ccc(/C=C/c2ncnc3ccccc23)cc1` yielded an absorption maximum (in ClCCl) of 433 nm.
Compound `NC(=O)Cc1cccc2ccccc12` has an absorption maximum (in C1COCCO1) of 283 nm, an absorption maximum (in CC#N) of 282 nm and an absorption maximum (in CCO) of 282 nm. The absorption maximum (in ClC(Cl)Cl) was 283 nm, the absorption maximum (in O) was 280 nm and the absorption maximum (in OCCO) was 283 nm. It also gave an absorption maximum (in [2H]O[2H]) of 280 nm.
Work on `O=C(c1ccc(-n2c3ccccc3c3cc(-n4c5ccccc5c5ccccc54)ccc32)cc1)c1ccc(-n2c3ccccc3c3cc(-n4c5ccccc5c5ccccc54)ccc32)cn1` yielded an absorption maximum (in Cc1ccccc1) of 345 nm.
Work on `Cc1ccc(C2=C3C=CC=[N+]3[B-](F)(F)n3cccc32)cc1` yielded an absorption maximum (in C1CCCCC1) of 500.5 nm, an absorption maximum (in CC#N) of 496.5 nm and an absorption maximum (in CCO) of 497.5 nm. The absorption maximum (in CCOC(C)=O) was 497 nm, the absorption maximum (in CO) was 496 nm and the absorption maximum (in OCC(F)(F)F) was 493 nm.
`CCCCCCOc1cc(C=C2C(=O)c3ccccc3C2=O)c(OCCCCCC)cc1C=C1C(=O)c2ccccc2C1=O` gave an absorption maximum (in ClCCl) of 512 nm.
`CC(C)[Si](C#Cc1c2c(=O)c3ccccc3c2c(C#C[Si](C(C)C)(C(C)C)C(C)C)c2c(=O)c3ccccc3c12)(C(C)C)C(C)C` gave an absorption maximum (in ClC(Cl)Cl) of 525 nm.
With `CC1(C)c2ccccc2N(c2ccccc2)c2ccc(C(=O)c3ccc4c(c3)C(C)(C)c3ccccc3N4c3ccccc3)cc21` the absorption maximum (in Cc1ccccc1) was 371.57 nm.
In the case of `COc1cc2c(cc1OC)C1=C[C@H](c3ccccc3)C3(C(C(=O)O[C@@H]4C[C@H]5CC[C@@H]4C5)=C(C(=O)O[C@H]4C[C@@H]5CC[C@H]4C5)N1CC2)c1ccccc1-c1ccccc13`, the absorption maximum (in ClCCl) is reported as 314 nm.
In the case of `Nc1cccc2cc3ccccc3cc12`, the absorption maximum (in C1CCCCC1) is reported as 384.17 nm.
In the case of `CCC1=C(C)C2=C(/C=C/Sc3ccccc3)c3c(C)c(CC)c(C)n3[B-](F)(F)[N+]2=C1C`, the absorption maximum (in ClCCl) is reported as 528 nm.
Work on `COc1ccc2c3c([nH]c2c1)C(C)=NCC3` yielded an absorption maximum (in CC#N) of 328 nm, an absorption maximum (in CS(C)=O) of 330 nm and an absorption maximum (in O) of 372 nm.
In the case of `CN(C)c1cc2sc3cc(N(C)C)c(F)cc3c(=O)c2cc1F`, the absorption maximum (in CCO) is reported as 382 nm.
Work on `CCN(CC)c1ccc(-c2nc(Oc3ccc(-c4nc5ccccc5[nH]4)cc3)nc(Oc3ccc(-c4nc5ccccc5[nH]4)cc3)n2)cc1` yielded an absorption maximum (in CN(C)C=O) of 376 nm.
Work on `CN1C(=Cc2c([O-])c(=O)/c2=N\C#N)C(C)(C)c2ccccc21` yielded an absorption maximum (in CCO) of 436 nm.
Work on `c1cc2ccc3ccc4cc3c2cc1c1ccc2ccc3ccc(cc3c2c1)c1ccc2ccc3ccc4cc3c2c1` yielded an absorption maximum (in Cc1ccccc1) of 375 nm.
`c1ccc(-n2c3ccccc3c3cc(-n4ccc5cc(-c6ccc(C7(c8ccccc8)c8ccccc8-c8ccccc87)cc6)ccc54)ccc32)cc1` showed an absorption maximum (in ClCCl) of 308 nm.
For `CCCCCCn1c2cc(C=O)sc2c2sc3c(sc4c5sc(C=O)cc5n(CCCCCC)c43)c21`, the absorption maximum (in ClCCl) was 468 nm.
`Cc1cc(C)c(C2=C3C=CC(c4ccc5c(ccc6ccccc65)c4)=[N+]3[B-](F)(F)n3c2ccc3-c2ccc3c(ccc4ccccc43)c2)c(C)c1` showed an absorption maximum (in ClC(Cl)Cl) of 579 nm.
With `COc1ccc(N(c2ccc(/C=C(\C)c3ccccc3)cc2)c2ccc(/C=C(\C)c3ccccc3)cc2)cc1` the absorption maximum (in Cc1ccccc1) was 364 nm.
Compound `c1cc2ccc3[se]c4ccc5cccc6c(c1)c2c3c4c56` has an absorption maximum (in ClC(Cl)Cl) of 416.5 nm.
In the case of `CCn1c2ccccc2c2cc(/C=C(\C#N)c3ccccc3)ccc21`, the absorption maximum (in ClCCl) is reported as 374 nm.
In the case of `CCOC(=O)c1c2c3c(ccc(C)c3c3cc4c(cc13)[Si](C)(C)O[Si]4(C)C)N(C)C2=O`, the absorption maximum (in CC#N) is reported as 380 nm.
Work on `C/C=C/C=C/C1=NC(=C\c2ccc([O-])cc2)/C(=O)N1C` yielded an absorption maximum (in O) of 482 nm.
Work on `O=Cc1ccc(Oc2ccc3c4c(cccc24)C(=O)N(CCO)C3=O)cc1` yielded an absorption maximum (in ClC(Cl)Cl) of 355 nm.
Work on `N#Cc1c(N2CCCCC2)cc(-c2ccc3ccccc3c2)c2c1-c1ccccc1C2` yielded an absorption maximum (in C1CCOC1) of 362 nm.
